In PMC6151588, “Four Prenylflavone Derivatives with Antiplasmodial Activities from the Stem of Tephrosia purpurea subsp. leptostachya” (Molecules : A Journal of Synthetic Chemistry and Natural …, 2017):
“Also recorded” adds a separate entry of the source. Like-named read-outs stand apart in the source and are kept apart here.

Assays:
[1] = tested on: chloroquine-sensitive D6 strain of Plasmodium falciparum; test: In vitro antiplasmodial activity, non-radioactive (fluorescence-based) assay; assay type: cell-based; details: for IC50: Plasmodium falciparum; for Antiplasmodial activity in words: D6 strain of Plasmodium falciparum
Protocol: The pure compounds were assayed using a non-radioactive assay technique as described by […] al., 2004 [32] with modifications given in the literature.

[2] = MTT cytotoxicity assay, HepG2; assay type: cell-based; details: human, HepG2 cells (liver cancer cell line)
Protocol: (§1) A549, HepG2, and non-tumoral cells were all purchased from ATCC. Cells were cultured in RPMI 1640 medium supplemented with 10% fetal bovine serum and antibiotics penicillin (50 U/mL) and streptomycin (50 μg/mL; Invitrogen, Paisley, Scotland, UK). All cell cultures were incubated at 37 °C in a 5% humidified CO2 incubator. All tested compounds were dissolved in DMSO at a final concentration of 50 mmol/L and stored at −20 °C before use. Cytotoxicity was assessed by using the 3-(4,5-dimethylthiazol-2-yl)-2,5-diphenyltetrazolium bromide (MTT) (5.0 mg/mL) assay as previously described. Briefly, 4 × 10^3 cells per well were seeded in 96-well plates before drug treatments. After overnight culture, the cells were then exposed to different concentrations of selected compounds (0.039–100 μmol/L) for 72 h. Cells without drug treatment were used as the control. Subsequently, MTT (10 μL) solution was added to each well and incubated at 37 °C for 4 h followed by the addition of 100 μL solubilization buffer (10% SDS in 0.01 mol/L HCl) and overnight incubation. A570 nm was then determined in each well on the next day. The percentage of cell viability was calculated using the following formula: Cell viability (%) = Atreated/Acontrol × 100. Data were obtained from three independent experiments and the standard error was calculated.

[3] = MTT cytotoxicity assay, A549; assay type: cell-based; details: human, A549 cells (adenocarcinomic alveolar basal epithelial cells), cancer cell
Protocol: as §1

[4] = MTT cytotoxicity assay, LO2; assay type: cell-based; details: human, LO2 cells (immortal hepatic cell line), non-tumoral cell
Protocol: as §1

[5] = MTT cytotoxicity, summary over the four cell-lines; assay type: cell-based; details: human, two non-tumoral and two cancerous cell-lines; read-out: Cytotoxicity IC50 against four cell-lines
Protocol: as §1

[6] = tested on: two non-tumoral and two cancerous cell-lines (LO2, BEAS, A549, HepG2); test: MTT cytotoxicity, summary over the four cell-lines; assay type: cell-based
Protocol: as §1

[7] = MTT cytotoxicity assay, BEAS; assay type: cell-based; details: human, non-tumoral cell
Protocol: as §1

[8] = D6 strain, in vitro, read-out: Antiplasmodial activity against P. falciparum D6, IC50

SMILES | IC50 ([1]; D6, read-out: Antiplasmodial activity against P. falciparum D6, IC50) | IC50 at 72 h [2] | IC50 at 72 h [3] | IC50 at 72 h [4] | IC50 at 72 h [5] | Selectivity index ([6]; cytotoxicity versus antiplasmodial activity (D6)) | IC50 ([6]; two non-tumoral and two cancerous cell-lines, read-out: Cytotoxicity IC50 against four cell-lines) | Antiplasmodial activity in words [1] | IC50 [1, 8] | IC50 at 72 h [7] | melting point
CCN(CC)CCCC(C)Nc1ccnc2cc(Cl)ccc12 (stereo not drawn) [Chloroquine, reference compound] | 0.037 ± 0.003 µM | – | – | – | – | – | – | – | – | – | –
COc1cc(O)c2c(=O)cc(-c3ccccc3)oc2c1/C=C/C(C)(C)O [Compound 1, (E)-5-hydroxy-8-(3-hydroxy-3-methylbut-1-en-1-yl)-7-methoxy-2-phenyl-4H-chromen-4-one] | – | > 100 µM | 76.1 ± 2.9 µM | 21.7 ± 4.8 µM | 21 to 100 µM | > 12 | > 21 µM | good activity; also recorded: the most active | 1.7 ± 0.1 µM | 24.5 ± 2.7 µM | –
COc1cc(O)c2c(=O)cc(-c3ccccc3)oc2c1/C=C/C(C)=O [Compound 2, (E)-5-hydroxy-7-methoxy-8-(3-oxobut-1-en-1-yl)-2-phenyl-4H-chromen-4-one] | – | > 100 µM | > 100 µM | > 100 µM | – | – | – | – | – | > 100 µM | –
COc1cc(OC(C)=O)c(C2COC(C)(C)C2=O)c2oc(-c3ccccc3)cc(=O)c12 (stereo not drawn) [Compound 4, 8-(5,5-dimethyl-4-oxotetrahydrofuran-3-yl)-5-methoxy-4-oxo-2-phenyl-4H-chromen-7-yl acetate] | – | > 100 µM | > 100 µM | > 100 µM | – | – | – | low antiplasmodial activities | 14.8 ± 3.2 µM | > 100 µM | 210 to 214 °C
COc1cc(OC)c2c(=O)cc(-c3ccccc3)oc2c1C1=COC(C)(C)C1=O [Compound 9, tachrosin] | – | > 100 µM | > 100 µM | > 100 µM | – | – | – | low antiplasmodial activities | 27.1 ± 3.2 µM | > 100 µM | –
